According to PubChem BioAssay AID248 (DTP/NCI, 2004):
“And” between values parts separate entries of the source, which are not always exact repeats. Equal values may be shown once. Inconclusive results and toxic doses are left out.

System: L1210 leukemia ip in BDF1 mice, survival T/C
Assay: NCI In Vivo Anticancer Drug Screen. Data for tumor model L1210 Leukemia (intraperitoneal) in B6D2F1 (BDF1) mice
Conditions: higher = longer survival
Method in brief: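 Ratio derived from survival: compound-dosed mice over vehicle-dosed mice, all bearing a transplantable tumor.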

CC[n+]1ccc(Nc2ccc(NC(=O)c3ccc(Nc4cc[n+](CC)c5ccc(N)cc45)cc3)cc2)cc1
T/C (endpoint: mean survival time, dose: 0.12 mg/kg/injection, schedule: Q01DX005 (iv), vehicle: water): 101 % of control
T/C (endpoint: mean survival time, dose: 0.12 mg/kg/injection, schedule: Q04DX003 (iv), vehicle: water): 105 % of control
T/C (endpoint: mean survival time, dose: 0.25 mg/kg/injection, schedule: Q01DX005 (iv), vehicle: water): 105 % of control
T/C (endpoint: mean survival time, dose: 0.25 mg/kg/injection, schedule: Q03HX024 (ip), vehicle: water): 113 % of control
T/C (endpoint: mean survival time, dose: 0.25 mg/kg/injection, schedule: Q04DX003 (iv), vehicle: water): 102 % of control
T/C (endpoint: mean survival time, dose: 0.5 mg/kg/injection, schedule: Q01DX005 (iv), vehicle: water): 100 % of control and 103 % of control
T/C (endpoint: mean survival time, dose: 0.5 mg/kg/injection, schedule: Q01DX009 (sc), vehicle: water): 94 % of control
T/C (endpoint: mean survival time, dose: 0.5 mg/kg/injection, schedule: Q03HX024 (ip), vehicle: water): 157 % of control
T/C (endpoint: mean survival time, dose: 0.5 mg/kg/injection, schedule: Q03HX024 (oral), vehicle: water): 97 % of control
T/C (endpoint: mean survival time, dose: 0.5 mg/kg/injection, schedule: Q04DX003 (iv), vehicle: water): 101 % of control
T/C (endpoint: mean survival time, dose: 0.75 mg/kg/injection, schedule: Q01DX009 (ip), vehicle: saline): 152 % of control and 201 % of control
T/C (endpoint: mean survival time, dose: 1.0 mg/kg/injection, schedule: Q01DX005 (iv), vehicle: water): 115 % of control
T/C (endpoint: mean survival time, dose: 1.0 mg/kg/injection, schedule: Q01DX009 (ip), vehicle: water): 180 % of control and 211 % of control
T/C (endpoint: mean survival time, dose: 1.0 mg/kg/injection, schedule: Q01DX009 (oral), vehicle: water): 103 % of control
T/C (endpoint: mean survival time, dose: 1.0 mg/kg/injection, schedule: Q01DX009 (sc), vehicle: water): 112 % of control and 122 % of control
T/C (endpoint: mean survival time, dose: 1.0 mg/kg/injection, schedule: Q03HX016 (ip), vehicle: water): 156 % of control
T/C (endpoint: mean survival time, dose: 1.0 mg/kg/injection, schedule: Q03HX024 (ip), vehicle: water): 186 % of control and 187 % of control and 208 % of control
T/C (endpoint: mean survival time, dose: 1.0 mg/kg/injection, schedule: Q03HX024 (oral), vehicle: water): 96 % of control and 101 % of control
T/C (endpoint: mean survival time, dose: 1.0 mg/kg/injection, schedule: Q03HX024 (sc), vehicle: water): 164 % of control
T/C (endpoint: mean survival time, dose: 1.0 mg/kg/injection, schedule: Q04DX003 (iv), vehicle: water): 103 % of control
T/C (endpoint: mean survival time, dose: 1.5 mg/kg/injection, schedule: Q01DX009 (ip), vehicle: saline): 160 % of control and 171 % of control
T/C (endpoint: mean survival time, dose: 1.9 mg/kg/injection, schedule: Q01DX009 (ip), vehicle: saline): 281 % of control
T/C (endpoint: mean survival time, dose: 2.0 mg/kg/injection, schedule: Q01DX005 (iv), vehicle: water): 103 % of control
T/C (endpoint: mean survival time, dose: 2.0 mg/kg/injection, schedule: Q01DX009 (oral), vehicle: water): 103 % of control
T/C (endpoint: mean survival time, dose: 2.0 mg/kg/injection, schedule: Q01DX009 (sc), vehicle: water): 189 % of control and 206 % of control
T/C (endpoint: mean survival time, dose: 2.0 mg/kg/injection, schedule: Q03HX016 (ip), vehicle: water): 188 % of control
T/C (endpoint: mean survival time, dose: 2.0 mg/kg/injection, schedule: Q03HX024 (ip), vehicle: water): 123 % of control and 218 % of control
T/C (endpoint: mean survival time, dose: 2.0 mg/kg/injection, schedule: Q03HX024 (oral), vehicle: water): 97 % of control and 100 % of control
T/C (endpoint: mean survival time, dose: 2.0 mg/kg/injection, schedule: Q03HX024 (sc), vehicle: water): 211 % of control
T/C (endpoint: mean survival time, dose: 2.0 mg/kg/injection, schedule: Q04DX003 (ip), vehicle: water): 113 % of control and 120 % of control
T/C (endpoint: mean survival time, dose: 2.0 mg/kg/injection, schedule: Q04DX003 (iv), vehicle: water): 105 % of control
T/C (endpoint: mean survival time, dose: 3.0 mg/kg/injection, schedule: Q01DX009 (ip), vehicle: saline): 274 % of control
T/C (endpoint: mean survival time, dose: 3.2 mg/kg/injection, schedule: Q01DX009 (ip), vehicle: saline): 313 % of control
T/C (endpoint: mean survival time, dose: 4.0 mg/kg/injection, schedule: Q01DX001 (ip), vehicle: water): 111 % of control
T/C (endpoint: mean survival time, dose: 4.0 mg/kg/injection, schedule: Q01DX009 (oral), vehicle: water): 96 % of control
T/C (endpoint: mean survival time, dose: 4.0 mg/kg/injection, schedule: Q01DX009 (sc), vehicle: water): 116 % of control and 219 % of control
T/C (endpoint: mean survival time, dose: 4.0 mg/kg/injection, schedule: Q03HX016 (ip), vehicle: water): 271 % of control
T/C (endpoint: mean survival time, dose: 4.0 mg/kg/injection, schedule: Q03HX024 (ip), vehicle: water): 112 % of control
T/C (endpoint: mean survival time, dose: 4.0 mg/kg/injection, schedule: Q03HX024 (oral), vehicle: water): 100 % of control and 101 % of control
T/C (endpoint: mean survival time, dose: 4.0 mg/kg/injection, schedule: Q08DX002 (ip), vehicle: water): 107 % of control
T/C (endpoint: mean survival time, dose: 4.0 mg/kg/injection, schedule: Q08DX002 (oral), vehicle: water): 101 % of control
T/C (endpoint: mean survival time, dose: 5.0 mg/kg/injection, schedule: Q01DX009 (oral), vehicle: water): 103 % of control
T/C (endpoint: mean survival time, dose: 6.0 mg/kg/injection, schedule: Q01DX009 (ip), vehicle: saline): 271 % of control
T/C (endpoint: mean survival time, dose: 8.0 mg/kg/injection, schedule: Q01DX009 (ip), vehicle: water): 96 % of control
T/C (endpoint: mean survival time, dose: 8.0 mg/kg/injection, schedule: Q01DX009 (oral), vehicle: water): 104 % of control (2×) and 107 % of control
T/C (endpoint: mean survival time, dose: 8.0 mg/kg/injection, schedule: Q01DX009 (sc), vehicle: water): 101 % of control and 117 % of control
T/C (endpoint: mean survival time, dose: 8.0 mg/kg/injection, schedule: Q03HX024 (oral), vehicle: water): 106 % of control
T/C (endpoint: mean survival time, dose: 8.0 mg/kg/injection, schedule: Q03HX024 (sc), vehicle: water): 104 % of control
T/C (endpoint: mean survival time, dose: 8.0 mg/kg/injection, schedule: Q04DX003 (ip), vehicle: water): 160 % of control and 164 % of control and 175 % of control
T/C (endpoint: mean survival time, dose: 9.0 mg/kg/injection, schedule: Q01DX009 (ip), vehicle: saline): 109 % of control
T/C (endpoint: mean survival time, dose: 10.0 mg/kg/injection, schedule: Q01DX009 (oral), vehicle: water): 103 % of control
T/C (endpoint: mean survival time, dose: 16.0 mg/kg/injection, schedule: Q01DX009 (ip), vehicle: water): 94 % of control
T/C (endpoint: mean survival time, dose: 16.0 mg/kg/injection, schedule: Q01DX009 (oral), vehicle: water): 101 % of control
T/C (endpoint: mean survival time, dose: 16.0 mg/kg/injection, schedule: Q04DX003 (ip), vehicle: water): 177 % of control and 190 % of control and 245 % of control
T/C (endpoint: mean survival time, dose: 18.0 mg/kg/injection, schedule: Q01DX001 (ip), vehicle: saline): 157 % of control
T/C (endpoint: mean survival time, dose: 20.0 mg/kg/injection, schedule: Q01DX009 (oral), vehicle: water): 100 % of control
T/C (endpoint: mean survival time, dose: 25.0 mg/kg/injection, schedule: Q01DX001 (ip), vehicle: saline): 120 % of control
T/C (endpoint: mean survival time, dose: 32.0 mg/kg/injection, schedule: Q01DX009 (oral), vehicle: water): 103 % of control and 111 % of control
T/C (endpoint: mean survival time, dose: 32.0 mg/kg/injection, schedule: Q03HX008 (ip), vehicle: water): 190 % of control
T/C (endpoint: mean survival time, dose: 40.0 mg/kg/injection, schedule: Q01DX009 (oral), vehicle: water): 105 % of control
T/C (endpoint: mean survival time, dose: 64.0 mg/kg/injection, schedule: Q01DX009 (oral), vehicle: water): 100 % of control and 102 % of control
T/C (endpoint: mean survival time, dose: 80.0 mg/kg/injection, schedule: Q01DX009 (oral), vehicle: water): 110 % of control
T/C (endpoint: median survival time, dose: 0.5 mg/kg/injection, schedule: Q03HX024 (ip), vehicle: water): 120 % of control and 122 % of control
T/C (endpoint: median survival time, dose: 1.3 mg/kg/injection, schedule: Q03HX024 (ip), vehicle: water): 190 % of control and 191 % of control
T/C (endpoint: median survival time, dose: 2.2 mg/kg/injection, schedule: Q01DX009 (ip), vehicle: water): 195 % of control and 198 % of control
T/C (endpoint: median survival time, dose: 2.2 mg/kg/injection, schedule: Q03HX024 (ip), vehicle: water): 235 % of control and 247 % of control
T/C (endpoint: median survival time, dose: 3.6 mg/kg/injection, schedule: Q01DX009 (ip), vehicle: water): 225 % of control and 227 % of control
T/C (endpoint: median survival time, dose: 6.0 mg/kg/injection, schedule: Q01DX009 (ip), vehicle: water): 170 % of control and 172 % of control
T/C (endpoint: median survival time, dose: 10.0 mg/kg/injection, schedule: Q01DX009 (ip), vehicle: water): 120 % of control and 122 % of control

Cc1ccc(C(=O)C=Nc2ccc(O)cc2)cc1
T/C (endpoint: mean survival time, dose: 12.5 mg/kg/injection, schedule: Q04DX002 (ip), vehicle: Klucel (hydroxypropylcellulose) (HPC)): 94 % of control
T/C (endpoint: mean survival time, dose: 25.0 mg/kg/injection, schedule: Q04DX002 (ip), vehicle: Klucel (hydroxypropylcellulose) (HPC)): 97 % of control
T/C (endpoint: mean survival time, dose: 50.0 mg/kg/injection, schedule: Q04DX002 (ip), vehicle: Klucel (hydroxypropylcellulose) (HPC)): 102 % of control

CCOC(=O)c1sc2ccc([N+](=O)[O-])cc2c1C
T/C (endpoint: mean survival time, dose: 100.0 mg/kg/injection, schedule: Q01DX001 (ip), vehicle: saline): 93 % of control
T/C (endpoint: mean survival time, dose: 200.0 mg/kg/injection, schedule: Q01DX001 (ip), vehicle: saline): 95 % of control
T/C (endpoint: mean survival time, dose: 400.0 mg/kg/injection, schedule: Q01DX001 (ip), vehicle: saline): 104 % of control

CCOC(OCC)c1ccccc1 (tested in a mixture with another compound)
T/C (endpoint: mean survival time, dose: 100.0 mg/kg/injection, schedule: Q01DX009 (ip), vehicle: saline with Tween-80): 100 % of control
T/C (endpoint: mean survival time, dose: 200.0 mg/kg/injection, schedule: Q01DX009 (ip), vehicle: saline with Tween-80): 100 % of control
T/C (endpoint: mean survival time, dose: 400.0 mg/kg/injection, schedule: Q01DX009 (ip), vehicle: saline with Tween-80): 94 % of control

C/C(Cl)=C1\CCCC\C1=N\NC(N)=O
T/C (endpoint: mean survival time, dose: 100.0 mg/kg/injection, schedule: Q01DX001 (ip), vehicle: Klucel (hydroxypropylcellulose) (HPC)): 95 % of control
T/C (endpoint: mean survival time, dose: 200.0 mg/kg/injection, schedule: Q01DX001 (ip), vehicle: Klucel (hydroxypropylcellulose) (HPC)): 98 % of control
T/C (endpoint: mean survival time, dose: 400.0 mg/kg/injection, schedule: Q01DX001 (ip), vehicle: Klucel (hydroxypropylcellulose) (HPC)): 102 % of control
